This is an account of results in US8114880B2, “Piperidine or piperazine substituted tetrahydro-naphthalene-1-carboxylic acid MTP inhibiting compounds” (Janssen Pharmaceutica N.V., priority 2006, dated 2012).

A value given as a limit tells only on which side of the number the result lay.

For assay [1], the target named is MTP (Homo sapiens, UniProt P55157). In words: MTP assay (triglyceride transfer from donor to acceptor vesicles). Particulars: MTP activity, percent triglyceride transfer from donor to acceptor vesicles, 37° C. It counts as biochemical. A digest of the protocol:
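Radiolabelled triglyceride transfer from donor vesicles (phosphatidylcholine, 7.5 mol % cardiolipin, 0.25 mol % glycerol tri[1-^14C]-oleate) to phosphatidylcholine acceptor vesicles with BSA, pH 7.5 Tris buffer; compounds in DMSO (0.13% final), 5 min preincubation at 37° C before MTP addition. Donor vesicles removed on DEAE-52; acceptor-supernatant ^14C counts give percent transfer.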

In assay [2] the test system is HepG2 cells. In words: Quantification of the secretion of ApoB. Particulars: Homo sapiens, HepG2, 24 h, 24 hours of incubation, pIC50 = -log IC50. It counts as cell-based. How it is done:
HepG2 cells were cultured in 24-well plates in MEM Rega 3 containing 10% fetal calf serum. At 70% confluency, the medium was changed and the test compound or carrier (DMSO, 0.4% final concentration) was added. After 24 hours of incubation, the medium was transferred to Eppendorf tubes and cleared by centrifugation. A sheep antibody directed against either apoB was added to the supernatant and the mixture was kept at 8° C. for 24 hours. Then, rabbit anti-sheep antibody was added and the immune complex was allowed to precipitate for 24 hours at 8° C. The immunoprecipitate was pelleted by centrifugation for 25 minutes at 1320 g and washed twice with a buffer containing 40 mM Mops, 40 mM NaH2PO4, 100 mM NaF, 0.2 mM DTT, 5 mM EDTA, 5 mM EGTA, 1% Triton-X-100, 0.5% sodium deoxycholate (DOC), 0.1% SDS, 0.2 μM leupeptin and 0.2 μM PMSF. Radioactivity in the pellet was quantified by liquid scintillation counting. The IC50 values are usually converted to pIC50 values (=−log IC50 value) for ease of use.

Usually IC50 stands for the midpoint of a concentration-inhibition curve.

Sequence of MTP (P55157 19-894, species assumed): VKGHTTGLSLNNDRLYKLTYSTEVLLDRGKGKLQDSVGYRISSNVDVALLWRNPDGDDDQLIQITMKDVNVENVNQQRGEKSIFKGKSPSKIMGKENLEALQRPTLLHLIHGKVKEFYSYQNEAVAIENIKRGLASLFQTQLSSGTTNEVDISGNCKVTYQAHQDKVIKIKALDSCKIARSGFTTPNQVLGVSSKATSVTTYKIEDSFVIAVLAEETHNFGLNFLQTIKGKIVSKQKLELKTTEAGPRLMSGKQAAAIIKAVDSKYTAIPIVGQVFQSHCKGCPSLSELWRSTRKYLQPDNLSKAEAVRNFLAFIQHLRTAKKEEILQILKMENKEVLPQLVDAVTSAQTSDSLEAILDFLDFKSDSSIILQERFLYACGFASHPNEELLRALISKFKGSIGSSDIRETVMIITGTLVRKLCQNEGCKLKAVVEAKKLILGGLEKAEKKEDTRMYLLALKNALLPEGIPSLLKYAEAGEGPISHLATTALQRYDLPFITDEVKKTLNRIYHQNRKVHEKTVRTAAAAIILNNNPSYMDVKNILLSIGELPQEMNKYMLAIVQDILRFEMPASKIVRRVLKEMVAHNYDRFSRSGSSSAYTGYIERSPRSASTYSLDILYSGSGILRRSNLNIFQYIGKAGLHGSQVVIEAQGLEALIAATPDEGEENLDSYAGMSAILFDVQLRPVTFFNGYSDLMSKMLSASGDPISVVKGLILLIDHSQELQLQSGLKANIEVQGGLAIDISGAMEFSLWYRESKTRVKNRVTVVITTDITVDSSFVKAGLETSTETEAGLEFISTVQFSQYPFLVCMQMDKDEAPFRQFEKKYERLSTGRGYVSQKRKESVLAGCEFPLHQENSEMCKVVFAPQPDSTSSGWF
Sequence of MTP (P07237 18-508 partner, species assumed): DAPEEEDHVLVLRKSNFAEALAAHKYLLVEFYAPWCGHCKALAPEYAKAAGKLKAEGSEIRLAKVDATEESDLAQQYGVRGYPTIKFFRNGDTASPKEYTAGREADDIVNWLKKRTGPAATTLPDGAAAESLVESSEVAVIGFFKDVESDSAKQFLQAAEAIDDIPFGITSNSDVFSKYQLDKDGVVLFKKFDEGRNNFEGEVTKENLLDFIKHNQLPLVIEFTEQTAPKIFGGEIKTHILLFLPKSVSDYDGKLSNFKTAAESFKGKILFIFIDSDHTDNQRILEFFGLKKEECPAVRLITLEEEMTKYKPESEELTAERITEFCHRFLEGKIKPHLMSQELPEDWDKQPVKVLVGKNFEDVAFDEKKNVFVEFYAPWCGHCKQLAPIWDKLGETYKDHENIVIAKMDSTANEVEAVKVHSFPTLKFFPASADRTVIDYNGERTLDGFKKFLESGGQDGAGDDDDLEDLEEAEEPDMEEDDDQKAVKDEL

With `COC(=O)[C@]1(c2ccccc2)CC[C@@H](C(=O)N2CCC(NC(=O)c3cc(OC)nnc3OC)CC2)c2ccccc21` [Co. No. 59], the IC50 in assay [1] was more than 100 nM; in assay [2] it was 225 nM.

As to `COC(=O)[C@]1(c2ccccc2)CC[C@@H](C(=O)N2CCC(NC(=O)c3cc(O)ccc3OC)CC2)c2ccccc21` [Co. No. 61], the results for the IC50 in assay [1] and in assay [2] were more than 10000 nM and 286 nM, respectively.

Turning to `COc1ccccc1C(=O)NC1CCN(C(=O)[C@H]2CC[C@@](C(=O)NCC(=O)OC(C)(C)C)(c3ccccc3)c3ccccc32)CC1` [Co. No. 62], the IC50 in assay [1] was 0.713 nM; in assay [2], 42.1 nM.

As to `COc1ccccc1C(=O)NC1CCN(C(=O)[C@H]2CC[C@@](C(=O)NCC(=O)O)(c3ccccc3)c3ccccc32)CC1` [Co. No. 63], the IC50 in assay [1] was more than 1000 nM; in assay [2], more than 10000 nM.

Regarding `COC(=O)CNC(=O)[C@@]1(c2ccccc2)CC[C@H](C(=O)N2CCC(NC(=O)c3ccccc3OC)CC2)c2ccccc21` [Co. No. 64], the IC50 was 3.87 nM in assay [1] and 17.8 nM in assay [2].

Consider `COC(=O)CCNC(=O)[C@@]1(c2ccccc2)CC[C@H](C(=O)N2CCC(NC(=O)c3ccccc3OC)CC2)c2ccccc21` [Co. No. 65], for which the IC50 in assay [1] is 2.86 nM; in assay [2], 7.98 nM.

As for `CCOC(=O)[C@H](C)NC(=O)[C@@]1(c2ccccc2)CC[C@H](C(=O)N2CCC(NC(=O)c3ccccc3OC)CC2)c2ccccc21` [Co. No. 66], the IC50 in assay [1] is 20.2 nM; in assay [2], more than 1000 nM.

On to `CCOC(=O)[C@@H](C)NC(=O)[C@@]1(c2ccccc2)CC[C@H](C(=O)N2CCC(NC(=O)c3ccccc3OC)CC2)c2ccccc21` [Co. No. 67], for which the IC50 in assay [1] is 20.2 nM; in assay [2] it was 873 nM.

As for `CCOC(=O)[C@@H](NC(=O)[C@@]1(c2ccccc2)CC[C@H](C(=O)N2CCC(NC(=O)c3ccccc3OC)CC2)c2ccccc21)C(C)C` [Co. No. 68], the IC50 in assay [1] is 17.9 nM; in assay [2], more than 1000 nM.

Turning to `CCOC(=O)[C@H](NC(=O)[C@@]1(c2ccccc2)CC[C@H](C(=O)N2CCC(NC(=O)c3ccccc3OC)CC2)c2ccccc21)C(C)C` [Co. No. 69], the IC50 in assay [1] was 24.4 nM; in assay [2], 154 nM.

Consider `CCOC(=O)[C@H](CC(C)C)NC(=O)[C@@]1(c2ccccc2)CC[C@H](C(=O)N2CCC(NC(=O)c3ccccc3OC)CC2)c2ccccc21` [Co. No. 70], for which the IC50 in assay [1] is 35.3 nM; in assay [2], more than 1000 nM.

Consider `CCOC(=O)C[C@H](NC(=O)[C@@]1(c2ccccc2)CC[C@H](C(=O)N2CCC(NC(=O)c3ccccc3OC)CC2)c2ccccc21)C(=O)OCC` [Co. No. 72], for which the IC50 in assay [1] was 10.7 nM; in assay [2], more than 1000 nM.

Consider `CCOC(=O)C[C@H](NC(=O)[C@@]1(c2ccccc2)CC[C@H](C(=O)N2CCC(NC(=O)c3ccccc3OC)CC2)c2ccccc21)C(=O)OC` [Co. No. 73], for which the figures for the IC50 in assay [1] and in assay [2] were more than 100 nM and more than 1000 nM, respectively.

Turning to `CCOC(=O)CC[C@H](NC(=O)[C@@]1(c2ccccc2)CC[C@H](C(=O)N2CCC(NC(=O)c3ccccc3OC)CC2)c2ccccc21)C(=O)OCC` [Co. No. 74], the IC50 is 5.08 nM in assay [1] and more than 1000 nM in assay [2].

With `COC(=O)[C@H](CCCCNC(=O)OC(C)(C)C)NC(=O)[C@@]1(c2ccccc2)CC[C@H](C(=O)N2CCC(NC(=O)c3ccccc3OC)CC2)c2ccccc21` [Co. No. 75], the IC50 in assay [1] is 2.24 nM; in assay [2] it was 20.2 nM.

As to `CCOC(=O)[C@H](NC(=O)[C@@]1(c2ccccc2)CC[C@H](C(=O)N2CCC(NC(=O)c3ccccc3OC)CC2)c2ccccc21)c1ccccc1` [Co. No. 79], the IC50 in assay [1] was 33.3 nM; in assay [2], 128 nM.

Turning to `CCOC(=O)[C@@H](NC(=O)[C@@]1(c2ccccc2)CC[C@H](C(=O)N2CCC(NC(=O)c3ccccc3OC)CC2)c2ccccc21)c1ccccc1` [Co. No. 80], the IC50 is 70.1 nM in assay [1] and 548 nM in assay [2].

Consider `CCOC(=O)[C@H](Cc1ccccc1)NC(=O)[C@@]1(c2ccccc2)CC[C@H](C(=O)N2CCC(NC(=O)c3ccccc3OC)CC2)c2ccccc21` [Co. No. 81], for which the IC50 in assay [1] was 12.6 nM; in assay [2], more than 1000 nM.

Consider `CCOC(=O)[C@@H](Cc1ccccc1)NC(=O)[C@@]1(c2ccccc2)CC[C@H](C(=O)N2CCC(NC(=O)c3ccccc3OC)CC2)c2ccccc21` [Co. No. 82], for which the IC50 was 12.9 nM in assay [1] and 289 nM in assay [2].

Consider `CCOC(=O)C1CCCCN1C(=O)[C@@]1(c2ccccc2)CC[C@H](C(=O)N2CCC(NC(=O)c3ccccc3OC)CC2)c2ccccc21` (stereo partly drawn) [Co. No. 83], for which the IC50 was 71.4 nM in assay [1] and 670 nM in assay [2].

With `CCOC(=O)C1CCCN(C(=O)[C@@]2(c3ccccc3)CC[C@H](C(=O)N3CCC(NC(=O)c4ccccc4OC)CC3)c3ccccc32)C1` (stereo partly drawn) [Co. No. 84], the IC50 in assay [1] is 228 nM; in assay [2], more than 1000 nM.

On to `CCOC(=O)C(Cc1ccc(O)cc1)NC(=O)[C@@]1(c2ccccc2)CC[C@H](C(=O)N2CCC(NC(=O)c3ccccc3OC)CC2)c2ccccc21` (stereo partly drawn) [Co. No. 85], for which the IC50 in assay [1] is more than 100 nM; in assay [2], more than 1000 nM.

With `CCOC(=O)C(Cc1c[nH]c2ccccc12)NC(=O)[C@@]1(c2ccccc2)CC[C@H](C(=O)N2CCC(NC(=O)c3ccccc3OC)CC2)c2ccccc21` (stereo partly drawn) [Co. No. 86], the IC50 in assay [1] is 66.5 nM; in assay [2], 653 nM.

With `COc1ccccc1C(=O)NC1CCN(C(=O)[C@H]2CC[C@@](C(=O)NCCC(=O)OC(C)(C)C)(c3ccccc3)c3ccccc32)CC1` [Co. No. 88], the IC50 is 2.15 nM in assay [1] and 20.6 nM in assay [2].

Regarding `COc1ccccc1C(=O)NC1CCN(C(=O)[C@H]2CC[C@@](C(=O)NCCC(=O)O)(c3ccccc3)c3ccccc32)CC1` [Co. No. 90], the IC50 was 2130 nM in assay [1] and more than 1000 nM in assay [2].

On to `COc1ccccc1C(=O)NC1CCN(C(=O)[C@H]2CC[C@@](C(=O)N[C@H](Cc3ccccc3)C(=O)OC(C)(C)C)(c3ccccc3)c3ccccc32)CC1` [Co. No. 96], for which the results for the IC50 in assay [1] and in assay [2] were 38.2 nM and 512 nM, respectively.

As to `COc1ccccc1C(=O)NC1CCN(C(=O)[C@H]2CC[C@@](C(=O)N[C@H](C(=O)OC(C)(C)C)C(C)C)(c3ccccc3)c3ccccc32)CC1` [Co. No. 102], the IC50 in assay [1] was 13.6 nM; in assay [2] it was 168 nM.

Consider `COc1ccccc1C(=O)NC1CCN(C(=O)[C@H]2CC[C@@](C(=O)N[C@@H](C(=O)OC(C)(C)C)C(C)C)(c3ccccc3)c3ccccc32)CC1` [Co. No. 103], for which the IC50 was 61 nM in assay [1] and 382 nM in assay [2].

As to `COc1ccccc1C(=O)NC1CCN(C(=O)[C@H]2CC[C@@](C(=O)N[C@@H](CC(C)C)C(=O)OC(C)(C)C)(c3ccccc3)c3ccccc32)CC1` [Co. No. 104], the IC50 was 21.6 nM in assay [1] and 171 nM in assay [2].

In the case of `COc1ccccc1C(=O)NC1CCN(C(=O)[C@H]2CC[C@@](C(=O)N[C@@H](COC(C)(C)C)C(=O)OC(C)(C)C)(c3ccccc3)c3ccccc32)CC1` [Co. No. 105], the concentration for half-maximal inhibition (IC50) in assay [1] is 48.8 nM; in assay [2], 271 nM.

With `COc1ccccc1C(=O)NC1CCN(C(=O)[C@H]2CC[C@@](C(=O)N[C@@H](CC(=O)OC(C)(C)C)C(=O)OC(C)(C)C)(c3ccccc3)c3ccccc32)CC1` [Co. No. 106], the IC50 is 16.1 nM in assay [1] and 185 nM in assay [2].

With `COc1ccccc1C(=O)NC1CCN(C(=O)[C@H]2CC[C@@](C(=O)N[C@@H](CCC(N)=O)C(=O)OC(C)(C)C)(c3ccccc3)c3ccccc32)CC1` [Co. No. 107], the IC50 was more than 100 nM in assay [1] and more than 1000 nM in assay [2].

In the case of `COc1ccccc1C(=O)NC1CCN(C(=O)[C@H]2CC[C@@](C(=O)N[C@@H](CCC(=O)OC(C)(C)C)C(=O)OC(C)(C)C)(c3ccccc3)c3ccccc32)CC1` [Co. No. 108], the half-maximal inhibitory concentration (IC50) in assay [1] is 9.18 nM; in assay [2], 74.8 nM.

For `COc1ccccc1C(=O)NC1CCN(C(=O)[C@H]2CC[C@@](C(=O)N[C@@H](CCCCNC(=O)OC(C)(C)C)C(=O)OC(C)(C)C)(c3ccccc3)c3ccccc32)CC1` [Co. No. 109], the IC50 in assay [1] is 2.43 nM; in assay [2], 2.77 nM.

Regarding `COc1ccccc1C(=O)NC1CCN(C(=O)[C@H]2CC[C@@](C(=O)N3CCC[C@H]3C(=O)OC(C)(C)C)(c3ccccc3)c3ccccc32)CC1` [Co. No. 110], the half-inhibitory concentration (IC50) in assay [1] is more than 100 nM; in assay [2] it was 245 nM.

For the compound `COc1ccccc1C(=O)NC1CCN(C(=O)[C@H]2CC[C@@](C(=O)N[C@@H](Cc3ccccc3)C(=O)OC(C)(C)C)(c3ccccc3)c3ccccc32)CC1` [Co. No. 112], the half-maximal inhibitory concentration (IC50) is 18 nM in assay [1] and 136 nM in assay [2].

As for `COc1ccccc1C(=O)NC1CCN(C(=O)[C@H]2CC[C@@](C(=O)N[C@@H](CC(=O)O)C(=O)O)(c3ccccc3)c3ccccc32)CC1` [Co. No. 121], the results for the IC50 in assay [1] and in assay [2] were more than 10000 nM and more than 1000 nM, respectively.

Turning to `CCOC(=O)CCNC(=O)[C@@]1(c2ccccc2)CC[C@H](C(=O)N2CCC(NC(=O)c3ccccc3OC)CC2)c2ccccc21` [Co. No. 129], the IC50 is 1.77 nM in assay [1] and 4.36 nM in assay [2].

Consider `COC(=O)CCNC(=O)[C@@]1(c2ccccc2)CC[C@H](C(=O)N2CCC(NC(=O)c3cccn(C)c3=O)CC2)c2ccccc21` [Co. No. 138], for which the IC50 is 596 nM in assay [1] and more than 1000 nM in assay [2].
